According to ChEMBL document CHEMBL5614367, “Hydroxamic acid hybrids: Histone deacetylase inhibitors with anticancer therapeutic potency” (Eur J Med Chem, 2023):

How the values were obtained:
HL-60 [1] = assay: Cytotoxicity against human HL-60 cells assessed as reduction in cell viability incubated for 72 hrs by Cell-titer Glo based analysis; assay type: functional; settings: HL-60, 72 h
HPBALL = assay: Cytotoxicity against human HPBALL cells assessed as reduction in cell viability incubated for 72 hrs by MTT assay; assay type: functional, cell-based
Plasmodium falciparum [2] = assay: Antiplasmodial activity against Plasmodium falciparum Dd2 assessed as reduction in parasite growth incubated for 3 days by ELISA analysis; assay type: functional, organism-based; settings: Dd2, 72 h
HL-60 [3] = assay: Cytotoxicity against human HL-60 cells assessed as reduction in cell viability incubated for 72 hr by MTT assay; assay type: functional, cell-based; settings: HL-60, 72 h
MOLM-13 = assay: Antiproliferative activity against human MOLM-13 cells assessed as reduction in cell viability incubated for 72 hrs by MTT assay; assay type: functional, cell-based; settings: MOLM-13, 72 h
Plasmodium falciparum [4] = assay: Antiplasmodial activity against artemisinin-resistant Plasmodium falciparum Dd2 R539T assessed as reduction in parasite growth incubated for 3 days by ELISA analysis; assay type: functional, organism-based; settings: 72 h
NALM-6 = assay: Cytotoxicity against human NALM-6 cells assessed as reduction in cell viability incubated for 72 hrs by MTT assay; assay type: functional, cell-based; settings: NALM-6, 72 h
[5] = biological target: T1, Protein deacetylase HDAC6 (Homo sapiens, UniProt Q9UBN7); assay: Inhibition of human recombinant HDAC6 using ZMAL (Z-Lys(Ac)-AMC as fluorogenic substrate pre-incubated for 30 mins followed by substrate addition and measured for 1 hr by Fluorescence based analysis
T1 sequence (Q9UBN7 whole entry): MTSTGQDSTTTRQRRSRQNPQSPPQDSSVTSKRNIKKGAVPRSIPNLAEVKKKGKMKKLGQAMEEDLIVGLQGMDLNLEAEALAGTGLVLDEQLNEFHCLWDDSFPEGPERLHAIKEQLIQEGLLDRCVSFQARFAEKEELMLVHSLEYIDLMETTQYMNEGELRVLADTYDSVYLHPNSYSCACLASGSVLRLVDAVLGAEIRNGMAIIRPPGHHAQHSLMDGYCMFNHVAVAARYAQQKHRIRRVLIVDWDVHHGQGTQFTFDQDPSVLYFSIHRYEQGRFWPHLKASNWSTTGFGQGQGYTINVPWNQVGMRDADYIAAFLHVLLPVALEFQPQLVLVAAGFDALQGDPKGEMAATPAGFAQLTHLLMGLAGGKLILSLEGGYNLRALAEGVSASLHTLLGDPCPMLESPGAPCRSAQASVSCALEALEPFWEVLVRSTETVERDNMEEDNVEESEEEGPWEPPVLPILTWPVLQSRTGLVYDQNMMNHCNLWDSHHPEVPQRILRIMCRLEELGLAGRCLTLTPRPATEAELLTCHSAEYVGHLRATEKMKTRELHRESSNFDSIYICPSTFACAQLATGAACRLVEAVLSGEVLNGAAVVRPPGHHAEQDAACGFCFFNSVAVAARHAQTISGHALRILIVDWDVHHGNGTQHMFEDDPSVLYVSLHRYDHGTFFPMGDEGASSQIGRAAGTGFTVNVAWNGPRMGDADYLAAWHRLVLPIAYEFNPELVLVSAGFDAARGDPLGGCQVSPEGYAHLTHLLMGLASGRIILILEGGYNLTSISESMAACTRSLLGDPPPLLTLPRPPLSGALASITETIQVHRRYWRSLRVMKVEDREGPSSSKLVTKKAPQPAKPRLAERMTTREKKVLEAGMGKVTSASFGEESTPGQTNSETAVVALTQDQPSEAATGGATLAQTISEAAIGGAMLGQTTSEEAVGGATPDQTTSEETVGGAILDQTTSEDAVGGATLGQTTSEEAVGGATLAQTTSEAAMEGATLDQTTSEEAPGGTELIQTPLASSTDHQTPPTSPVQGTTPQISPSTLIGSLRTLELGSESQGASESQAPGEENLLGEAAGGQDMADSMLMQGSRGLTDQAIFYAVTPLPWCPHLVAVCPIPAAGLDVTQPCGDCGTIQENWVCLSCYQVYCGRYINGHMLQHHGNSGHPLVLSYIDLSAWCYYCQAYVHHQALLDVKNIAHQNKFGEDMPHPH

Plasmodium falciparum [6] = assay: Antiplasmodial activity against Plasmodium falciparum 3D7 assessed as reduction in parasite growth incubated for 3 days by ELISA analysis; assay type: functional, organism-based; settings: 3D7, 72 h
K562 [7] = assay: Cytotoxicity against human K562 cells assessed as reduction in cell viability incubated for 72 hrs by Cell-titer Glo based analysis; assay type: functional; settings: K562, 72 h
[8] = Cytotoxicity against human L02 cells; assay type: toxicity, cell-based
[9] = Cytotoxicity against human BEAS-2B cells; assay type: toxicity, cell-based
SCC-25 = assay: Antiproliferative activity against human SCC-25 cells; assay type: functional, cell-based
[10] = biological target: T1, Protein deacetylase HDAC6; assay: Inhibition of HDAC6 (unknown origin)
MCF7 = assay: cells; settings: Homo sapiens
Description: Antiproliferative activity against human MCF7 cells

[11] = Cytotoxicity against HEK293T cells; assay type: toxicity, cell-based, HEK-293T; settings: human
U-87 MG = assay: Antiproliferative activity against human U-87 MG cells; assay type: functional, cell-based, U-87MG ATCC
SW-620 = assay: Antiproliferative activity against human SW620 cells incubated for 48 hrs by colorimetric method; assay type: functional, cell-based; settings: SW-620, 48 h
NCI-H23 = assay: Antiproliferative activity against human NCI-H23 cells incubated for 48 hrs by colorimetric method; assay type: functional, cell-based; settings: NCI-H23, 48 h
PC-3 = assay: Antiproliferative activity against human PC-3 cells incubated for 48 hrs by colorimetric method; assay type: functional, cell-based; settings: PC-3, 48 h
[12] = biological target: T1, Protein deacetylase HDAC6; assay: Inhibition of HDAC6 (unknown origin) incubated for 30 mins in presence of fluorimetric assay
HCT-116 [13] = assay: Antiproliferative activity against human HCT-116 cells by MTT assay; assay type: functional, cell-based
U-937 = assay: Antiproliferative activity against human U-937 cells by MTT assay; assay type: functional, cell-based
K562 [14] = assay: Antiproliferative activity against human K562 cells by MTT assay; assay type: functional, cell-based
Cytochrome P450 2D6 = Cytochrome P450 2D6 (Homo sapiens, UniProt P10635); assay: Inhibition of CYP2D6 in human liver microsomes; assay type: ADME, Microsome
Histone deacetylase 1 = Histone deacetylase 1 (Homo sapiens, UniProt Q13547); assay: Inhibition of HDAC1 (unknown origin)
[15] = biological target: DNA (cytosine-5)-methyltransferase 1 (Homo sapiens, UniProt P26358); assay: Inhibition of DNMT1 (unknown origin)
[16] = Metabolic stability in rat liver microsomes assessed as half life; assay type: ADME, Microsome
Focal adhesion kinase 1 = Focal adhesion kinase 1 (Homo sapiens, UniProt Q05397); assay: Inhibition of FAK (unknown origin)
KYSE-450 [17] = assay: Antiproliferative activity against human KYSE-450 cells; assay type: functional, cell-based
HCT-116 [18] = assay: cells; settings: Homo sapiens
MGC-803 [19] = assay: Antitumor activity against human MGC-803 cells xenografted in mouse assessed as tumor growth inhibition at 20 mg/kg relative to control; assay type: functional; settings: read-out: TGI
HCT-116 [20] = assay: Potency index, ratio of TAE-226 IC50 to test compound IC50 for antiproliferative activity against human HCT-116 cells; assay type: functional
BGC-823 = assay: Antiproliferative activity against human BGC-823 cells; assay type: functional, cell-based
KYSE-450 [21] = assay: Potency index, ratio of vorinostat IC50 to test compound IC50 for antiproliferative activity against human KYSE-450 cells; assay type: functional
HCT-116 [22] = assay: Potency index, ratio of vorinostat IC50 to test compound IC50 for antiproliferative activity against human HCT-116 cells; assay type: functional
MGC-803 [23] = assay: Antiproliferative activity against human MGC-803 cells; assay type: functional, cell-based
HGC-27 = assay: Antiproliferative activity against human HGC-27 cells; assay type: functional, cell-based
KYSE-450 [24] = assay: Potency index, ratio of TAE-226 IC50 to test compound IC50 for antiproliferative activity against human KYSE-450 cells; assay type: functional
HCT-116 [25] = assay: cells; assay type: functional, cell-based; settings: Homo sapiens, HCT-116, 48 h
A549 = assay: Antiproliferative activity against human A549 cells assessed as inhibition of cell growth incubated for 48 hrs by SRB assay; assay type: functional, cell-based; settings: A549, 48 h

DNA (cytosine-5)-methyltransferase 1, sequence (P26358 whole entry): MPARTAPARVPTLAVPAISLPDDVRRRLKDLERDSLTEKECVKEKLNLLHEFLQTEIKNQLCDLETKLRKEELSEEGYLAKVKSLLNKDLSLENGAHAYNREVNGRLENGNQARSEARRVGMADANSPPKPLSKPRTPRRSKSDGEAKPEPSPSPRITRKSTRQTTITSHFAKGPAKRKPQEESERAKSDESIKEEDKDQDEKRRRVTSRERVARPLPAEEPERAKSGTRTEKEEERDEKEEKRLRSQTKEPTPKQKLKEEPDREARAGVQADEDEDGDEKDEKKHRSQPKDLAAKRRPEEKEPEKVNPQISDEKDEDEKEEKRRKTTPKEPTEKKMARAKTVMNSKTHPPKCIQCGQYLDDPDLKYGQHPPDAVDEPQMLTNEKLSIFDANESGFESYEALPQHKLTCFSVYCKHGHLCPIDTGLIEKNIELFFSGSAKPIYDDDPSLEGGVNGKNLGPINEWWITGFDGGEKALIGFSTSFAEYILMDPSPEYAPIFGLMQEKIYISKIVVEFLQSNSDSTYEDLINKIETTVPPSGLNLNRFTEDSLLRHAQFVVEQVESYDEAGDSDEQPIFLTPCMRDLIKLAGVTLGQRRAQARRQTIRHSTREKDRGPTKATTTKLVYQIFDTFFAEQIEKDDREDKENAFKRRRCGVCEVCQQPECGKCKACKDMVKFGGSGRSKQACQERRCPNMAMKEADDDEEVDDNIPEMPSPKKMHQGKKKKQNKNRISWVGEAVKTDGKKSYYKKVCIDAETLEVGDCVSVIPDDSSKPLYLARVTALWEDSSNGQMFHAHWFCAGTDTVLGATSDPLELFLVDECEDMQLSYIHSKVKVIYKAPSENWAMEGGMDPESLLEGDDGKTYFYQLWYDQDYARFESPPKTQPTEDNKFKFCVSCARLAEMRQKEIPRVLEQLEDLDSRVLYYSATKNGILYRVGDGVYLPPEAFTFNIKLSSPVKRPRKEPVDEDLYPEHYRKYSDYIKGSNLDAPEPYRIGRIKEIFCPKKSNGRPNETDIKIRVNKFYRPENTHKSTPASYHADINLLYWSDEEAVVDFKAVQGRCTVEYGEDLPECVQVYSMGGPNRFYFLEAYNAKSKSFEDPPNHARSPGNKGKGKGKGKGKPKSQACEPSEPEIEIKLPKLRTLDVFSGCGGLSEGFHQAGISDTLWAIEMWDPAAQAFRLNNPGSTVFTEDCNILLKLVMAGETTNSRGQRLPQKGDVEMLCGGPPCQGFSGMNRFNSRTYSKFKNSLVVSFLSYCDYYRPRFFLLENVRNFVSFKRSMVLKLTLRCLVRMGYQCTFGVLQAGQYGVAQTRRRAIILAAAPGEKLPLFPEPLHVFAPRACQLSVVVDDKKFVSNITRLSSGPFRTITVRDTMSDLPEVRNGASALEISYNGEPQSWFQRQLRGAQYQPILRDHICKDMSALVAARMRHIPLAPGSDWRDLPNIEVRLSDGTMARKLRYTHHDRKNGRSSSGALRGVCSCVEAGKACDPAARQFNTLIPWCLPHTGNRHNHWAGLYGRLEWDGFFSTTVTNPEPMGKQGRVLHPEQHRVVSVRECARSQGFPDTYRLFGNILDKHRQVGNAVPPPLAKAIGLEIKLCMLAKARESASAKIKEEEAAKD
Histone deacetylase 1, sequence (Q13547 whole entry): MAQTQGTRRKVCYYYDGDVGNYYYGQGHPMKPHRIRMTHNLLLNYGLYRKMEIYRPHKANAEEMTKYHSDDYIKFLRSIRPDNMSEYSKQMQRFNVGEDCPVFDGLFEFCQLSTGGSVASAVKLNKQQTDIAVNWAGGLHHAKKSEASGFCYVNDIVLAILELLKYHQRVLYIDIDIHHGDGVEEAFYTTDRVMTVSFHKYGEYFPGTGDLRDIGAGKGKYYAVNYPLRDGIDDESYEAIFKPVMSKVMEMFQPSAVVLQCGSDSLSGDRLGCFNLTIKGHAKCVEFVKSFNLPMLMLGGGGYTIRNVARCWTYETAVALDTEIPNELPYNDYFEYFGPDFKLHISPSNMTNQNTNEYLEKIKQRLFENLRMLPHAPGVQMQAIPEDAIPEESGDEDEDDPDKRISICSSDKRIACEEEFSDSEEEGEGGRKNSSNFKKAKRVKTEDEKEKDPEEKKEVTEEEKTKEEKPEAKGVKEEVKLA
Focal adhesion kinase 1, sequence (Q05397 whole entry): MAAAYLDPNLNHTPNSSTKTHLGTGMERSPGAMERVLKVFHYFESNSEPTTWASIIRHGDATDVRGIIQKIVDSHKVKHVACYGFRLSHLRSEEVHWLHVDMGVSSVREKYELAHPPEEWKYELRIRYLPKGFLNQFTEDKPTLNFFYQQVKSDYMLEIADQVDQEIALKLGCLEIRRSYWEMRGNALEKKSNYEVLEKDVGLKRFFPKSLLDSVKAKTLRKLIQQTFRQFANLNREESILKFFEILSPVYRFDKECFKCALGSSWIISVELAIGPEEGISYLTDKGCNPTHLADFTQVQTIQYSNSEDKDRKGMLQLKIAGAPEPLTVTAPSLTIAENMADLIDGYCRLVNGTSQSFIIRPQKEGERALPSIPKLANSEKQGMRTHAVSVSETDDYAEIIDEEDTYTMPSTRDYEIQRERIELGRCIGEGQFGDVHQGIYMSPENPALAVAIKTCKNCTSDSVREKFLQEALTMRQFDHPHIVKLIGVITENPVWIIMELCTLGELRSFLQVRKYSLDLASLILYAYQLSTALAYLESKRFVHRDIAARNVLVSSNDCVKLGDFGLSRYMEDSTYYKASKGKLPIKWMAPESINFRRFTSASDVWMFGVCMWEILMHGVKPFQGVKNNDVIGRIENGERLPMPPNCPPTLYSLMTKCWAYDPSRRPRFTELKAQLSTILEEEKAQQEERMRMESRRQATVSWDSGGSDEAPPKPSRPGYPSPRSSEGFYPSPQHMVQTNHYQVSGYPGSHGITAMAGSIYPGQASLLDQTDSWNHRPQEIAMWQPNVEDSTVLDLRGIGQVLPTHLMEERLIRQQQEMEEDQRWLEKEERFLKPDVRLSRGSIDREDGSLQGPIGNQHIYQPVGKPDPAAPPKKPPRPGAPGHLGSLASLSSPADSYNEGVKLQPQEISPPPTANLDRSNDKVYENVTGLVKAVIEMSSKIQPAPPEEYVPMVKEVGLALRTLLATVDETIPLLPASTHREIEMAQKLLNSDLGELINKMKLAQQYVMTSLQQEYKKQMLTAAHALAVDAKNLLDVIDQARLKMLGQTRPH
Cytochrome P450 2D6, sequence (P10635 whole entry): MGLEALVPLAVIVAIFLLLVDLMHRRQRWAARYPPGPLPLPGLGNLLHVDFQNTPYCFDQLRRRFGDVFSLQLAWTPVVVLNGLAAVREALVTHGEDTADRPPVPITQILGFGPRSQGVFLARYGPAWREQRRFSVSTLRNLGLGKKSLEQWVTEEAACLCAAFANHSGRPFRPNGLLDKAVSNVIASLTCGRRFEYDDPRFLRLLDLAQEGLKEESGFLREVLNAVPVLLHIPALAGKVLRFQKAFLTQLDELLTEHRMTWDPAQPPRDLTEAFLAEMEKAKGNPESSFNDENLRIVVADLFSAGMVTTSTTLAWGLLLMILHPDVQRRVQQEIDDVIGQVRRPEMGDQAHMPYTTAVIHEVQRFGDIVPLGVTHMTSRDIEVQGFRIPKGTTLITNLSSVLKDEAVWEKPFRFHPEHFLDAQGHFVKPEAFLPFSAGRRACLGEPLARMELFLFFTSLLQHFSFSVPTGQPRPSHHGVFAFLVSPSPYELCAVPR

Compound `C[C@@H]1CC[C@H]2[C@@H](C)C(SCCC(=O)NO)C[C@@H]3O[C@]4(C)CC[C@@H]1[C@]32OO4` (some centres not stated) has an IC50 (HL-60 [1]) of 0.69 µM, an IC50 (HPBALL) of 0.15 µM and an IC50 (Plasmodium falciparum [2]) of 0.0019 µM. It also gave an IC50 (HL-60 [3]) of 0.69 µM, an IC50 (MOLM-13) of 0.69 µM and an IC50 (Plasmodium falciparum [4]) of 0.0019 µM. It also gave an IC50 (NALM-6) of 0.26 µM, an IC50 [5] of 0.045 µM and an IC50 (Plasmodium falciparum [6]) of 0.0019 µM. The IC50 (K562 [7]) was 0.69 µM.
In the case of `COCCOc1ccc2c(OCCCCCCCC(=O)NO)cc(=O)oc2c1`, the IC50 [8] is reported as > 50 µM and the IC50 [9] is reported as > 50 µM.
For `COc1ccc(-c2ccc(C(=O)N3CCc4c(cc(Cl)c(C(=O)NO)c4Cl)C3)cc2)cc1`, the IC50 (SCC-25) was 4.01 µM, the IC50 [10] was 0.0087 µM and the IC50 (MCF7) was 4.01 µM. It also gave an IC50 [11] of 51.2 µM and an IC50 (U-87 MG) of 4.01 µM.
With `C[C@@H]1CC[C@H]2[C@@H](C)C(OCC(=O)NO)C[C@@H]3O[C@]4(C)CC[C@@H]1[C@]32OO4` (some centres not stated) the IC50 (HL-60 [1]) was 0.69 µM, the IC50 (HPBALL) was 0.15 µM and the IC50 (Plasmodium falciparum [2]) was 0.0019 µM. The IC50 (HL-60 [3]) was 0.69 µM, the IC50 (MOLM-13) was 0.69 µM and the IC50 (Plasmodium falciparum [4]) was 0.0019 µM. The IC50 (NALM-6) was 0.15 µM, the IC50 [5] was 0.187 µM and the IC50 (Plasmodium falciparum [6]) was 0.0019 µM. It also gave an IC50 (K562 [7]) of 0.69 µM.
In the case of `O=C(/C=C/c1ccc2c(=O)n(Cc3ccc(Cl)cc3)cnc2c1)NO`, the IC50 (SW-620) is reported as 0.67 µM, the IC50 (NCI-H23) is reported as 0.67 µM and the IC50 (PC-3) is reported as 0.67 µM. For the same compound, the IC50 [12] was 0.047 µM.
With `Nc1ccn(Cc2ccc(-c3cn(CCCCCCC(=O)NO)nn3)cc2)c(=O)n1` the IC50 (HCT-116 [13]) was 7.1 µM, the IC50 (U-937) was 7.1 µM and the IC50 (K562 [14]) was 7.1 µM. The IC50 (Cytochrome P450 2D6) was 8.7 µM, the IC50 (Histone deacetylase 1) was 0.00268 µM and the IC50 [15] was 6.39 µM. It also gave an IC50 [10] of 0.00837 µM and a half-life [16] of 6.08 h.
With `CNC(=O)c1ccccc1Nc1nc(Nc2ccc(NC(=O)CCCCCCC(=O)NO)cc2)ncc1Cl` the IC50 (Focal adhesion kinase 1) was 0.132 µM, the IC50 (KYSE-450 [17]) was 0.182 µM and the IC50 (HCT-116 [18]) was 0.182 µM. For the same compound, the inhibition in vivo at 20 mg/kg (MGC-803 [19]) was 53.5%, the “Ratio IC50” value (HCT-116 [20]) was 2.8 and the IC50 (BGC-823) was 0.0154 µM. For the same compound, the IC50 [10] was 0.016 µM, the “Ratio IC50” value (KYSE-450 [21]) was 2.8 and the “Ratio IC50” value (HCT-116 [22]) was 2.8. For the same compound, the IC50 (MGC-803 [23]) was 0.0039 µM, the IC50 (HGC-27) was 0.0184 µM and the “Ratio IC50” value (KYSE-450 [24]) was 2.8.
For `O=C(NO)c1ccc(CNc2cccc3cc(-c4cccnc4)cnc23)cc1`, the IC50 (HCT-116 [25]) was 1.29 µM and the IC50 (A549) was 1.29 µM.
For `Cc1ccc(Cn2cnc3cc(/C=C/C(=O)NO)ccc3c2=O)cc1`, the IC50 (SW-620) was 0.67 µM, the IC50 (NCI-H23) was 0.67 µM and the IC50 (PC-3) was 0.67 µM. The IC50 [12] was 0.033 µM.
